# From ChEMBL document CHEMBL1201862, “PubChem BioAssay data set” (2004)
#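 Cultured in 96-well plates, cells were exposed to test compound for 48 hours across five concentrations. GI50 is the concentration that inhibits growth by half.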 Active and inactive are the calls of the source. No stated cut-off is given here; in the data, active = GI50 up to about 1.1 µM and inactive = higher.
# Legend:
# Test in all cases: inhibition of tumour cell growth, NCI panel, 48 h
# OVCAR-8 = tested on: OVCAR-8
# LXFL 529 = tested on: LXFL 529
# CCRF-CEM = tested on: CCRF-CEM
# M14 = tested on: M14
# EKVX = tested on: EKVX
# HT-29 = tested on: HT-29
# HL-60 = tested on: HL-60
# Malme-3M = tested on: Malme-3M
# K562 = tested on: K562
# HCT-116 = tested on: HCT-116
# SF-268 = tested on: SF-268
# DMS-114 = tested on: DMS-114
# SF-295 = tested on: SF-295
# SK-OV-3 = tested on: SK-OV-3
# SNB-19 = tested on: SNB-19
# OVCAR-4 = tested on: OVCAR-4
# COLO 205 = tested on: COLO 205
# UACC-257 = tested on: UACC-257
# UO-31 = tested on: UO-31
# NCI-H23 = tested on: NCI-H23
# MOLT-4 = tested on: MOLT-4
# RPMI-8226 = tested on: RPMI-8226
# A549 = tested on: A549
# SNB-78 = tested on: SNB-78
# U-251 = tested on: U-251
# DMS-273 = tested on: DMS-273
# HOP-18 = tested on: HOP-18
# SK-MEL-28 = tested on: SK-MEL-28
# OVCAR-3 = tested on: OVCAR-3
# ACHN = tested on: ACHN
# SN12C = tested on: SN12C
# HOP-92 = tested on: HOP-92
# XF498 = tested on: XF498
# SNB-75 = tested on: SNB-75
# 786-0 = tested on: 786-0
# NCI-H226 = tested on: NCI-H226
# TK-10 = tested on: TK-10
# NCI-H522 = tested on: NCI-H522
# KM12 = tested on: KM12
# DLD-1 = tested on: DLD-1
# SK-MEL-2 = tested on: SK-MEL-2
# KM-20L2 = tested on: KM-20L2
# SW-620 = tested on: SW-620
# RXF 393 = tested on: RXF 393
# HCC 2998 = tested on: HCC 2998
# SR = tested on: SR
# UACC-62 = tested on: UACC-62
# A498 = tested on: A498
# HCT-15 = tested on: HCT-15
# OVCAR-5 = tested on: OVCAR-5
# SF-539 = tested on: SF-539
# LOX IMVI = tested on: LOX IMVI
# M19-MEL = tested on: M19-MEL
# NCI-H460 = tested on: NCI-H460
# HOP-62 = tested on: HOP-62
# SK-MEL-5 = tested on: SK-MEL-5
# CAKI-1 = tested on: CAKI-1
# IGROV-1 = tested on: IGROV-1
structure (smiles),measurement,setting,value
c1ccc(-c2nc3ccccc3nc2SCc2cccnc2)cc1,GI50,OVCAR-8,> 100 µM (inactive)
same,GI50,LXFL 529,> 100 µM (inactive)
same,GI50,CCRF-CEM,> 100 µM (inactive)
same,GI50,M14,> 100 µM (inactive)
same,GI50,EKVX,> 100 µM (inactive)
same,GI50,HT-29,> 100 µM (inactive)
same,GI50,HL-60,> 100 µM (inactive)
same,GI50,Malme-3M,> 100 µM (inactive)
same,GI50,K562,> 100 µM (inactive)
same,GI50,HCT-116,> 100 µM (inactive)
same,GI50,SF-268,> 100 µM (inactive)
same,GI50,DMS-114,> 100 µM (inactive)
same,GI50,SF-295,> 100 µM (inactive)
same,GI50,SK-OV-3,> 100 µM (inactive)
same,GI50,SNB-19,> 100 µM (inactive)
same,GI50,OVCAR-4,> 100 µM (inactive)
same,GI50,COLO 205,> 100 µM (inactive)
same,GI50,UACC-257,> 100 µM (inactive)
same,GI50,UO-31,56.6 µM (inactive)
same,GI50,NCI-H23,> 100 µM (inactive)
same,GI50,MOLT-4,> 100 µM (inactive)
same,GI50,RPMI-8226,> 100 µM (inactive)
same,GI50,A549,> 100 µM (inactive)
same,GI50,SNB-78,> 100 µM (inactive)
same,GI50,U-251,> 100 µM (inactive)
same,GI50,DMS-273,> 100 µM (inactive)
same,GI50,HOP-18,14.4 µM (inactive)
same,GI50,SK-MEL-28,> 100 µM (inactive)
same,GI50,OVCAR-3,> 100 µM (inactive)
same,GI50,ACHN,> 100 µM (inactive)
same,GI50,SN12C,> 100 µM (inactive)
same,GI50,HOP-92,> 100 µM (inactive)
same,GI50,XF498,> 100 µM (inactive)
same,GI50,SNB-75,> 100 µM (inactive)
same,GI50,786-0,> 100 µM (inactive)
same,GI50,NCI-H226,> 100 µM (inactive)
O=C1C2=C(CCCC2)Nc2cccc3ncn1c23,GI50,OVCAR-8,> 100 µM (inactive)
same,GI50,LXFL 529,> 100 µM (inactive)
same,GI50,CCRF-CEM,> 100 µM (inactive)
same,GI50,M14,> 100 µM (inactive)
same,GI50,EKVX,> 100 µM (inactive)
same,GI50,TK-10,> 100 µM (inactive)
same,GI50,HL-60,> 100 µM (inactive)
same,GI50,NCI-H522,> 100 µM (inactive)
same,GI50,Malme-3M,> 100 µM (inactive)
same,GI50,KM12,> 100 µM (inactive)
same,GI50,DLD-1,> 100 µM (inactive)
same,GI50,SK-MEL-2,> 100 µM (inactive)
same,GI50,K562,> 100 µM (inactive)
same,GI50,HCT-116,> 100 µM (inactive)
same,GI50,SF-268,> 100 µM (inactive)
same,GI50,KM-20L2,> 100 µM (inactive)
same,GI50,DMS-114,> 100 µM (inactive)
same,GI50,SW-620,> 100 µM (inactive)
same,GI50,RXF 393,> 100 µM (inactive)
same,GI50,SF-295,> 100 µM (inactive)
same,GI50,SK-OV-3,> 100 µM (inactive)
same,GI50,SNB-19,> 100 µM (inactive)
same,GI50,COLO 205,> 100 µM (inactive)
same,GI50,HCC 2998,> 100 µM (inactive)
same,GI50,UACC-257,> 100 µM (inactive)
same,GI50,SR,> 100 µM (inactive)
same,GI50,UO-31,> 100 µM (inactive)
same,GI50,UACC-62,> 100 µM (inactive)
same,GI50,NCI-H23,> 100 µM (inactive)
same,GI50,MOLT-4,> 100 µM (inactive)
same,GI50,A498,> 100 µM (inactive)
same,GI50,RPMI-8226,> 100 µM (inactive)
same,GI50,HCT-15,> 100 µM
same,GI50,A549,> 100 µM (inactive)
same,GI50,SNB-78,> 100 µM (inactive)
same,GI50,U-251,> 100 µM (inactive)
same,GI50,DMS-273,> 100 µM (inactive)
same,GI50,HOP-18,10.3 µM (inactive)
same,GI50,SK-MEL-28,> 100 µM (inactive)
same,GI50,OVCAR-3,> 100 µM (inactive)
same,GI50,ACHN,> 100 µM (inactive)
same,GI50,SN12C,> 100 µM (inactive)
same,GI50,HOP-92,> 100 µM (inactive)
same,GI50,OVCAR-5,> 100 µM (inactive)
same,GI50,786-0,> 100 µM (inactive)
same,GI50,SF-539,> 100 µM (inactive)
same,GI50,LOX IMVI,> 100 µM (inactive)
same,GI50,M19-MEL,> 100 µM (inactive)
same,GI50,NCI-H460,> 100 µM (inactive)
same,GI50,HOP-62,> 100 µM (inactive)
same,GI50,SK-MEL-5,> 100 µM (inactive)
COC(=O)c1cc(C)c(C)c2c1NC(=O)CNC2=O,GI50,OVCAR-8,> 100 µM (inactive)
same,GI50,LXFL 529,> 100 µM (inactive)
same,GI50,CCRF-CEM,> 100 µM (inactive)
same,GI50,M14,> 100 µM (inactive)
same,GI50,EKVX,> 100 µM (inactive)
same,GI50,HT-29,> 100 µM (inactive)
same,GI50,HL-60,> 100 µM (inactive)
same,GI50,KM12,> 100 µM (inactive)
same,GI50,DLD-1,> 100 µM (inactive)
same,GI50,SK-MEL-2,> 100 µM (inactive)
same,GI50,K562,> 100 µM (inactive)
same,GI50,HCT-116,> 100 µM (inactive)
same,GI50,KM-20L2,> 100 µM (inactive)
same,GI50,CAKI-1,> 100 µM (inactive)
same,GI50,DMS-114,> 100 µM (inactive)
same,GI50,SW-620,> 100 µM (inactive)
same,GI50,RXF 393,> 100 µM (inactive)
same,GI50,SF-295,> 100 µM (inactive)
same,GI50,OVCAR-4,> 100 µM (inactive)
same,GI50,COLO 205,> 100 µM (inactive)
same,GI50,HCC 2998,> 100 µM (inactive)
same,GI50,UACC-257,> 100 µM (inactive)
same,GI50,SR,> 100 µM (inactive)
same,GI50,UO-31,33.5 µM (inactive)
same,GI50,UACC-62,> 100 µM (inactive)
same,GI50,NCI-H23,> 100 µM (inactive)
same,GI50,MOLT-4,> 100 µM (inactive)
same,GI50,A498,> 100 µM (inactive)
same,GI50,RPMI-8226,> 100 µM (inactive)
same,GI50,HCT-15,> 100 µM
same,GI50,A549,> 100 µM (inactive)
same,GI50,SNB-78,> 100 µM (inactive)
same,GI50,U-251,> 100 µM (inactive)
same,GI50,DMS-273,> 100 µM (inactive)
same,GI50,SK-MEL-28,> 100 µM (inactive)
same,GI50,OVCAR-3,> 100 µM (inactive)
same,GI50,ACHN,> 100 µM (inactive)
same,GI50,SN12C,> 100 µM (inactive)
same,GI50,XF498,> 100 µM (inactive)
same,GI50,SNB-75,> 100 µM (inactive)
same,GI50,786-0,> 100 µM (inactive)
same,GI50,SF-539,> 100 µM (inactive)
same,GI50,IGROV-1,> 100 µM (inactive)
same,GI50,M19-MEL,> 100 µM (inactive)
same,GI50,NCI-H460,> 100 µM (inactive)
same,GI50,HOP-62,> 100 µM (inactive)
